This is an account of results in patent US20130123365A1, “USE OF FTS AND ANALOGS TO TREAT NON-AUTOIMMUNE-ALLERGIC AND NON-ALLERGIC INFLAMMATORY CONDITIONS” (RAMOT AT TEL-AVIV UNIVERSITY LTD., priority 2010, published 2013).

One assay relates to Ras. Description: Raf-1-RBD pull-down assay of GTP loaded Ras in stimulated LAD2 cells. The following applies: FCεRI cross-linking, pretreated with 25 μM FTS. It is filed as cell-based, human. The protocol: (§1) For IgE-mediated activation, cells were sensitized overnight with 100 ng/ml of human myeloma IgE-biotin (Calbiochem; Merck Darmstadt, Germany) and then stimulated with 100 ng/ml of streptavidin (Jackson Immuno-Research Laboratories, West Grove, Pa.). Degranulation was quantified 20 minutes after stimulation by assaying the release of ε-hexosaminidase, a preformed mediator present in the secretory granules of MC. Release of ε-hexosaminidase was measured spectrophotometrically by assaying the cleavage of its substrate p-nitrophenyl-N-acetyl-ε-D-glucosaminide. Degranulation was expressed as a percentage of total ε-hexosaminidase activity in the cells, obtained by lysis of the cells with 0.5% triton X-100. Supernatants obtained from MC stimulated for 3 to 6 hours were examined for the released PGD2 and TNF-α by a commercial ELISA kits, according to the manufacturer's instructions (Prostaglandin D2-MOX EIA Kit, Cayman Chemical Company, Ann Arbor, Mich., and TNF-α HS Elisa kit, R&D® Systems Inc., Minneapolis, Minn.). Methods of detecting activated Ras by pull-down assay and by SDS-PAGE immunoblotting were performed as previously described.

The subject of assay [1] is LAD2 cells. Description: Mast cell degranulation (β-hexosaminidase secretion) after FCεRI cross-linking. The following applies: 20 minutes after stimulation. It is filed as cell-based, human. As to the method: as §1, with “The LAD2 MC, expressing functional FCεRI receptors, were established from bone marrow aspirates of a patient with MC leukemia and maintained as previously described. Transfection of LAD2 cells was performed with DMRIE-C (Invitrogen, Carlsbad, Calif.), and cells were studied 24 hours later. For” for “For”, “Minn.).” for “Minn.). Methods of detecting activated Ras by pull-down assay and by SDS-PAGE immunoblotting were performed as previously described.”

Assay [2] concerns LAD2 cells. Description: TNF-α release from stimulated mast cells (ELISA). The assay is classed as cell-based, human. The settings on record: different concentrations of FTS, 3 hours after stimulation, dose dependent, p<0.05. The protocol: as §1, with “The LAD2 MC, expressing functional FCεRI receptors, were established from bone marrow aspirates of a patient with MC leukemia and maintained as previously described. Transfection of LAD2 cells was performed with DMRIE-C (Invitrogen, Carlsbad, Calif.), and cells were studied 24 hours later. For” for “For”, “Minn.).” for “Minn.). Methods of detecting activated Ras by pull-down assay and by SDS-PAGE immunoblotting were performed as previously described.”
On the technique in general: ELISA stands for enzyme-linked immunosorbent assay.

In the next assay the target is T1, N-Ras (Homo sapiens, UniProt P01111).
T1 construct: expressed in transfected cells; host or cells: LAD2 human mast cell line
Description: Ras activation imaging: GFP-Raf-1-RBD probe translocation in LAD2 cells after FCεRI cross-linking. It is filed as cell-based. The following applies: LAD2 cells expressing RFP-N-Ras, pretreated with 25 μM FTS. As to the method: The LAD2 MC, expressing functional FCεRI receptors, were established from bone marrow aspirates of a patient with MC leukemia and maintained as previously described. Transfection of LAD2 cells was performed with DMRIE-C (Invitrogen, Carlsbad, Calif.), and cells were studied 24 hours later.
as §1, with “Minn.).” for “Minn.). Methods of detecting activated Ras by pull-down assay and by SDS-PAGE immunoblotting were performed as previously described.”
Live cells were plated in 35-mm dishes containing a no. […]

The subject of assay [3] is LAD2 cells. Nature of the assay: PGD2 release from stimulated mast cells (ELISA). The settings on record: 6 hours after stimulation. It is filed as cell-based, human. As to the method: as §1, with “The LAD2 MC, expressing functional FCεRI receptors, were established from bone marrow aspirates of a patient with MC leukemia and maintained as previously described. Transfection of LAD2 cells was performed with DMRIE-C (Invitrogen, Carlsbad, Calif.), and cells were studied 24 hours later. For” for “For”, “Minn.).” for “Minn.). Methods of detecting activated Ras by pull-down assay and by SDS-PAGE immunoblotting were performed as previously described.”

The next assay concerns BALB/c female mice. Nature of the assay: IgE-dependent passive cutaneous anaphylaxis reaction, footpad swelling. It is filed as in vivo. The settings on record: oral 100 mg/kg. As to the method:
The study was approved by the Institutional Ethics Committee of Tel Aviv University. 8-10 weeks old BALB/c female mice were primed to express an IgE-dependent passive cutaneous anaphylaxis (PCA) reaction. Mice were lightly anaesthetized with ether and their left footpads were injected subcutaneously with 20 ul (20 ng) of IgE anti DNP. Their right footpads were injected with 20 ul of diluents. The next day the mice received an intraperitoneal injection of 100 ug of DNP30-40-HAS in saline. Footpad swelling was measured with an engineer's micrometer (Ozaki Mfg. Co., Itabashi, Tokyo). Footpad swelling was expressed as the difference in thickness before and after the challenge, measured at several time points after the challenge. FTS was orally administrated before the antigen challenge at 100 mg/kg as previously described.

T1 sequence (P01111 whole entry, species assumed): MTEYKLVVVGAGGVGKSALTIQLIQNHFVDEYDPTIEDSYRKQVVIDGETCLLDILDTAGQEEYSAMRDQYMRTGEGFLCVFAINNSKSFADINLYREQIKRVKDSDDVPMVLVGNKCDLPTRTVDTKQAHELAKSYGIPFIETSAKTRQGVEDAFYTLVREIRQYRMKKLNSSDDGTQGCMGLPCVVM

`CC(C)=CCCC(C)=CCCC(C)=CCSc1ccccc1C(=O)O` [FTS, S-farnesylthiosalicylic acid]: in the assay with Ras, the “levels of GTP loaded Ras” value was “significantly attenuated”. For the same compound, the “relative reduction in the amount of activated Ras” value with Ras (n=4) is listed as “approximately 35%”. The “immunological degranulation (β-hexosaminidase secretion)” value with LAD2 cells [1] (25 μM FTS) and with LAD2 cells [1] (50 μM FTS) was “did not significantly modify” each time. For the same compound, the TNF-α release result in the assay on LAD2 cells [2] is “appreciably inhibited”. The “translocation of the probe for activated Ras (GFP-Raf-1-RBD) to the plasma membrane” value on N-Ras is given as “completely blocked”. The “release of PGD2” value is “not” in the assay with LAD2 cells [3] (25 μM FTS) and “inhibited” in the assay with LAD2 cells [3] (50 μM FTS). Further, in the assay with BALB/c female mice (three hours after antigen challenge), the “tissue (footpad) swelling” value is recorded as “inhibited tissue swelling”. In addition, the “attenuation of tissue (footpad) swelling” value in the assay on BALB/c female mice (three to six hours after antigen challenge) is given as roughly 40%.
